Experimental data: PubChem BioAssay AID248 (DTP/NCI, 2004)
Several values for one entry are separate records, joined by “and”; a condition that tells them apart may be missing. Equal entries are not always repeated. Toxic doses and inconclusive results are not listed. Cut-off read from the data, not from the text of the source: active = T/C of 150% or more; inactive = T/C below 125%.

Test system: L1210 leukemia ip in BDF1 mice, survival T/C
Test: NCI In Vivo Anticancer Drug Screen. Data for tumor model L1210 Leukemia (intraperitoneal) in B6D2F1 (BDF1) mice
Details: endpoint: mean survival time, higher = longer survival
Procedure, shortened: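 Transplanted-tumor mice were given test agent; controls received vehicle only. Survival readings from the two groups were divided (treated over control).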

[1] = dose: 50.0 mg/kg/injection, schedule: Q01DX009 (ip), vehicle: saline with Tween-80
[2] = dose: 100.0 mg/kg/injection, schedule: Q01DX009 (ip), vehicle: saline with Tween-80
[3] = dose: 200.0 mg/kg/injection, schedule: Q01DX009 (ip), vehicle: saline with Tween-80
[4] = dose: 100.0 mg/kg/injection, schedule: Q01DX001 (ip), vehicle: saline
[5] = dose: 200.0 mg/kg/injection, schedule: Q01DX001 (ip), vehicle: saline
[6] = dose: 400.0 mg/kg/injection, schedule: Q01DX001 (ip), vehicle: saline
[7] = dose: 100.0 mg/kg/injection, schedule: Q04DX003 (ip), vehicle: saline with Tween-80
[8] = dose: 200.0 mg/kg/injection, schedule: Q04DX003 (ip), vehicle: saline with Tween-80
[9] = dose: 400.0 mg/kg/injection, schedule: Q04DX003 (ip), vehicle: saline with Tween-80
[10] = dose: 100.0 mg/kg/injection, schedule: Q01DX009 (ip), vehicle: saline
[11] = dose: 100.0 mg/kg/injection, schedule: Q04DX003 (ip), vehicle: saline
[12] = dose: 200.0 mg/kg/injection, schedule: Q01DX009 (ip), vehicle: saline
[13] = dose: 200.0 mg/kg/injection, schedule: Q04DX003 (ip), vehicle: saline
[14] = dose: 400.0 mg/kg/injection, schedule: Q04DX003 (ip), vehicle: saline
[15] = dose: 100.0 mg/kg/injection, schedule: Q04DX002 (ip), vehicle: Klucel (hydroxypropylcellulose) (HPC)
[16] = dose: 200.0 mg/kg/injection, schedule: Q04DX002 (ip), vehicle: Klucel (hydroxypropylcellulose) (HPC)
[17] = dose: 400.0 mg/kg/injection, schedule: Q04DX002 (ip), vehicle: Klucel (hydroxypropylcellulose) (HPC)
[18] = dose: 100.0 mg/kg/injection, schedule: Q01DX009 (ip), vehicle: Klucel (hydroxypropylcellulose) (HPC)
[19] = dose: 100.0 mg/kg/injection, schedule: Q04DX003 (ip), vehicle: Klucel (hydroxypropylcellulose) (HPC)
[20] = dose: 200.0 mg/kg/injection, schedule: Q04DX003 (ip), vehicle: Klucel (hydroxypropylcellulose) (HPC)
[21] = dose: 400.0 mg/kg/injection, schedule: Q04DX003 (ip), vehicle: Klucel (hydroxypropylcellulose) (HPC)
[22] = dose: 400.0 mg/kg/injection, schedule: Q01DX009 (ip), vehicle: Klucel (hydroxypropylcellulose) (HPC)

Measured: T/C

Cc1[nH]c(N)nc(=S)c1CCCN(C(=O)c1ccccc1)c1ccccc1
inactive: dose: 37.5 mg/kg/injection, schedule: Q01DX001 (ip), vehicle: Klucel (hydroxypropylcellulose) (HPC) 90 % of control | dose: 150.0 mg/kg/injection, schedule: Q01DX001 (ip), vehicle: Klucel (hydroxypropylcellulose) (HPC) 90 % of control

CSc1ccc(OC(C)=O)cc1
inactive: [1] 94 % of control | [2] 91 % of control | [3] 102 % of control

Nc1cccc(CC(=O)Nc2ccccc2)c1
inactive: dose: 100.0 mg/kg/injection, schedule: Q01DX009 (ip), vehicle: alcohol 93 % of control | dose: 100.0 mg/kg/injection, schedule: Q04DX003 (ip), vehicle: alcohol 97 % of control | dose: 200.0 mg/kg/injection, schedule: Q01DX009 (ip), vehicle: alcohol 105 % of control | dose: 200.0 mg/kg/injection, schedule: Q04DX003 (ip), vehicle: alcohol 100 % of control | dose: 400.0 mg/kg/injection, schedule: Q01DX009 (ip), vehicle: alcohol 103 % of control | dose: 400.0 mg/kg/injection, schedule: Q04DX003 (ip), vehicle: alcohol 100 % of control

CCCC(=O)OCc1cnc(SC)nc1N
inactive: [4] 100 % of control | [5] 97 % of control | [6] 93 % of control

Brc1ccc2[nH]c3c(c2c1)CSc1ccccc1-3
inactive: [7] 105 % of control | [8] 99 % of control | [9] 103 % of control

COc1ccc(CC(=O)OOC(C)(C)C)cc1
inactive: [7] 100 % of control | [8] 92 % of control

NCC(=O)O.[Zn+2]
inactive: dose: 100.0 mg/kg/injection, schedule: Q01DX001 (ip), vehicle: water 97 % of control | dose: 200.0 mg/kg/injection, schedule: Q01DX001 (ip), vehicle: water 96 % of control | dose: 400.0 mg/kg/injection, schedule: Q01DX001 (ip), vehicle: water 94 % of control

[O-][N+](Cc1ccccc1)=Nc1ccccc1
inactive: dose: 100.0 mg/kg/injection, schedule: Q01DX001 (ip), vehicle: Klucel (hydroxypropylcellulose) (HPC) 100 % of control | dose: 200.0 mg/kg/injection, schedule: Q01DX001 (ip), vehicle: Klucel (hydroxypropylcellulose) (HPC) 96 % of control | dose: 400.0 mg/kg/injection, schedule: Q01DX001 (ip), vehicle: Klucel (hydroxypropylcellulose) (HPC) 89 % of control

C=CCC(CC)(C(=O)O)C(=O)O
inactive: [10] 96 % of control | [11] 102 % of control | [12] 93 % of control | [13] 95 % of control | [14] 86 % of control

CN(Cc1ccc(Cl)cc1)C(=S)Nc1ccccc1
inactive: [15] 114 % of control | [16] 92 % of control | [17] 96 % of control

Cc1ccc(S(=O)(=O)Nc2ccccc2N=Cc2ccc(N(CCCl)CCCl)cc2)cc1
inactive: dose: 100.0 mg/kg/injection, schedule: Q01DX001 (ip), vehicle: carboxymethylcellulose (CMC) 115 % of control | dose: 200.0 mg/kg/injection, schedule: Q01DX001 (ip), vehicle: carboxymethylcellulose (CMC) 106 % of control | dose: 400.0 mg/kg/injection, schedule: Q01DX001 (ip), vehicle: carboxymethylcellulose (CMC) 90 % of control

O=C(O)C1C=CCC(C(=O)O)C1 (stereo unspecified)
inactive: [11] 98 % of control | [13] 108 % of control | [14] 95 % of control

S=C=NC1CCC(CC2CCCCC2)CC1 (stereo unspecified)
inactive: dose: 25.0 mg/kg/injection, schedule: Q01DX009 (ip), vehicle: Klucel (hydroxypropylcellulose) (HPC) 105 % of control | dose: 50.0 mg/kg/injection, schedule: Q01DX009 (ip), vehicle: Klucel (hydroxypropylcellulose) (HPC) 94 % of control | [18] 93 % of control and 96 % of control | [19] 98 % of control | [20] 101 % of control | [21] 103 % of control

C#CCOP(=O)(OCC)OCC
inactive: [10] 105 % of control | [12] 103 % of control

COc1cc(C2N(c3ccccc3)CCN2c2ccccc2)cc(OC)c1OC
inactive: [18] 97 % of control | [19] 90 % of control | [20] 93 % of control | [22] 94 % of control | [21] 95 % of control

CSc1cc(-c2ccccc2)c2ccccc2[n+]1C
inactive: dose: 12.5 mg/kg/injection, schedule: Q04DX003 (ip), vehicle: saline with Tween-80 112 % of control | dose: 25.0 mg/kg/injection, schedule: Q01DX009 (ip), vehicle: saline with Tween-80 116 % of control | dose: 25.0 mg/kg/injection, schedule: Q04DX003 (ip), vehicle: saline with Tween-80 112 % of control | dose: 50.0 mg/kg/injection, schedule: Q04DX003 (ip), vehicle: saline with Tween-80 90 % of control | [7] 94 % of control

c1ccc(C(c2ccccc2)[Si](c2ccccc2)(C(c2ccccc2)c2ccccc2)C(c2ccccc2)c2ccccc2)cc1
inactive: dose: 25.6 mg/kg/injection, schedule: Q04DX002 (ip), vehicle: saline with Tween-80 96 % of control | dose: 37.5 mg/kg/injection, schedule: Q01DX009 (ip), vehicle: Klucel (hydroxypropylcellulose) (HPC) 93 % of control | dose: 64.0 mg/kg/injection, schedule: Q04DX002 (ip), vehicle: saline with Tween-80 100 % of control | dose: 75.0 mg/kg/injection, schedule: Q01DX009 (ip), vehicle: Klucel (hydroxypropylcellulose) (HPC) 88 % of control | [7] 94 % of control | dose: 160.0 mg/kg/injection, schedule: Q04DX002 (ip), vehicle: saline with Tween-80 93 % of control | [8] 100 % of control | dose: 400.0 mg/kg/injection, schedule: Q04DX002 (ip), vehicle: saline with Tween-80 104 % of control | [9] 94 % of control

CCC(C)NNC(C)CC (stereo unspecified)
inactive: dose: 75.0 mg/kg/injection, schedule: Q01DX001 (ip), vehicle: other 98 % of control | dose: 150.0 mg/kg/injection, schedule: Q01DX001 (ip), vehicle: other 112 % of control | dose: 300.0 mg/kg/injection, schedule: Q01DX001 (ip), vehicle: other 103 % of control

OCCN1CC2CCCC1O2 (stereo unspecified)
inactive: dose: 50.0 mg/kg/injection, schedule: Q01DX001 (ip), vehicle: saline 101 % of control | [4] 101 % of control | [5] 103 % of control | [6] 101 % of control

CCCCCCCCCCCCC(O)C(=O)O (stereo unspecified)
inactive: [19] 95 % of control | [20] 95 % of control | [21] 94 % of control

Cc1cc(Cl)ccc1OCC(=O)OCCC1=CCC2CC1C2(C)C (stereo unspecified)
inactive: [10] 94 % of control | [12] 100 % of control | dose: 400.0 mg/kg/injection, schedule: Q01DX009 (ip), vehicle: saline 102 % of control

O=C(O)C1C2C=CC(C2)C1C(=O)Nc1ccccn1 (stereo unspecified)
inactive: [1] 104 % of control | [2] 101 % of control | [3] 96 % of control

CCCCN(CCCC)C(=N)OC1CCCCC1
inactive: dose: 8.8 mg/kg/injection, schedule: Q01DX Z (ip), vehicle: methylcellulose (MC) 93 % of control | dose: 13.3 mg/kg/injection, schedule: Q01DX Z (ip), vehicle: methylcellulose (MC) 91 % of control | dose: 20.0 mg/kg/injection, schedule: Q01DX Z (ip), vehicle: methylcellulose (MC) 97 % of control

C/C(=N/Nc1ccc([N+](=O)[O-])cc1[N+](=O)[O-])C(C)(C)C
inactive: dose: 25.0 mg/kg/injection, schedule: Q04DX002 (ip), vehicle: Klucel (hydroxypropylcellulose) (HPC) 87 % of control | dose: 50.0 mg/kg/injection, schedule: Q04DX002 (ip), vehicle: Klucel (hydroxypropylcellulose) (HPC) 93 % of control | [15] 101 % of control and 90 % of control | [16] 97 % of control | [17] 93 % of control

O=c1c2ccccc2[nH]c(=S)n1-c1cccc(C(F)(F)F)c1
inactive: [18] 100 % of control | dose: 200.0 mg/kg/injection, schedule: Q01DX009 (ip), vehicle: Klucel (hydroxypropylcellulose) (HPC) 97 % of control | [22] 96 % of control

CCOc1ccc(/C=N/N=C(N)N)cc1OCC
inactive: dose: 62.5 mg/kg/injection, schedule: Q01DX Z (oral), vehicle: saline 110 % of control | dose: 125.0 mg/kg/injection, schedule: Q01DX Z (oral), vehicle: saline 114 % of control | dose: 250.0 mg/kg/injection, schedule: Q01DX Z (oral), vehicle: saline 91 % of control
